Literature values as cited in patent publication US20200069728A1, “HYPOCHLOROUS ACID BASED EYE DROP AND OPHTHALMIC COMPOSITION” (priority 2018, published 2020).

Details: non-stabilized hypochlorous acid, background statement

OCl [hypochlorous acid]
potency lost per day: 1-2%
